# ChEMBL document CHEMBL2177072, “Design and synthesis of β-site amyloid precursor protein cleaving enzyme (BACE1) inhibitors with in vivo brain reduction of β-amyloid peptides” (J Med Chem, 2012)
# Target: T1, Beta-secretase 1 (Homo sapiens, UniProt P56817)
# Experiment: not given
# Assay type: cell-based, SH-SY5Y
# Conditions: not given
# T1 sequence (P56817 whole entry): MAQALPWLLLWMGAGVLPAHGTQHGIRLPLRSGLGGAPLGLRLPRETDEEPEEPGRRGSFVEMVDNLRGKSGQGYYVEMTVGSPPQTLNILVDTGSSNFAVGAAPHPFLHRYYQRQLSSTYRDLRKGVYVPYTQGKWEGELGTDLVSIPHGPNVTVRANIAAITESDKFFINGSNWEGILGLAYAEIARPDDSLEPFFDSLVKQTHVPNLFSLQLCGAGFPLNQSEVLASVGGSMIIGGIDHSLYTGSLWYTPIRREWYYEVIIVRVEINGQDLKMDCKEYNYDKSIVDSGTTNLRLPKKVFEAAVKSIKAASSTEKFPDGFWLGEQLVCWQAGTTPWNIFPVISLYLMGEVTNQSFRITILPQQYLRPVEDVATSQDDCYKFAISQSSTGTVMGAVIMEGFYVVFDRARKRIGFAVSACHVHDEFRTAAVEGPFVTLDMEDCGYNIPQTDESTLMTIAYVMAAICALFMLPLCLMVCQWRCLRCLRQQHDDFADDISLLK
row,IC50 [nM],Compound
1,2.92,COc1c(C)cc(C2(c3cccc(-c4cncnc4)c3)N=C(N)c3c(F)cccc32)nc1C (centres undefined)
2,2.97,CC#Cc1cncc(-c2cccc(C3(c4ccnc(C(F)F)c4)N=C(N)c4c(F)cccc43)c2)c1 (centres undefined)
3,25.6,NC1=NC(c2ccncc2)(c2cccc(-c3cncc(F)c3)c2)c2cccc(F)c21 (centres undefined)
4,0.15,CCn1cc([C@]2(c3cccc(NC(=O)c4ccc(Cl)cn4)c3)N=C(N)c3c(F)cccc32)cc(C)c1=O
5,11.4,Cc1cc(C2(c3cccc(-c4cncnc4)c3)N=C(N)c3c(F)cccc32)cn(C)c1=O (centres undefined)
6,3.98,CCn1cc(C2(c3cccc(-c4cncc(F)c4)c3)N=C(N)c3c(F)cccc32)cc(C)c1=O (centres undefined)
7,3.4,COc1c(C)cc(C2(c3cccc(-c4cncnc4)c3)N=C(N)c3c(F)cccc32)cc1C#N (centres undefined)
8,10.7,Cc1cc(C2(c3cccc(-c4cncnc4)c3)N=C(N)c3c(F)cccc32)cc(C)n1 (centres undefined)
9,8.64,NC1=N[C@@](c2cccc(-c3cncnc3)c2)(c2ccnc(C(F)F)c2)c2cc(F)cc(F)c21
10,9.09,CCn1cc(C2(c3cccc(-c4cncnc4)c3)N=C(N)c3c(F)cccc32)cc(C)c1=O (centres undefined)
11,21.5,COc1cc(C2(c3cccc(-c4cncnc4)c3)N=C(N)c3c(F)cccc32)ccn1 (centres undefined)
12,90.3,NC1=NC(c2ccncc2)(c2cccc(-c3cncnc3)c2)c2ccccc21 (centres undefined)

# Target: T1, Beta-secretase 1
# Experiment: not given
# Conditions: not given
# Remark: another data set of the same source
row,IC50 [nM],Compound
1,6.49,CC#Cc1cncc(-c2cccc(C3(c4ccnc(C(F)F)c4)N=C(N)c4c(F)cccc43)c2)c1 (centres undefined)
2,137,NC1=NC(c2ccncc2)(c2cccc(-c3cncc(F)c3)c2)c2cccc(F)c21 (centres undefined)
3,2.49,CCn1cc([C@]2(c3cccc(NC(=O)c4ccc(Cl)cn4)c3)N=C(N)c3c(F)cccc32)cc(C)c1=O
4,60.8,Cc1cc(C2(c3cccc(-c4cncnc4)c3)N=C(N)c3c(F)cccc32)cn(C)c1=O (centres undefined)
5,1380,Cc1cc(C2(c3cccc(-c4cncnc4)c3)N=C(N)c3c(F)cccc32)cc(C)n1 (centres undefined)
6,36.2,NC1=N[C@@](c2cccc(-c3cncnc3)c2)(c2ccnc(C(F)F)c2)c2cc(F)cc(F)c21
7,15.5,CCn1cc(C2(c3cccc(-c4cncnc4)c3)N=C(N)c3c(F)cccc32)cc(C)c1=O (centres undefined)

# Target: T2, Beta-secretase 2 (Homo sapiens, UniProt Q9Y5Z0)
# T2 sequence (Q9Y5Z0 whole entry): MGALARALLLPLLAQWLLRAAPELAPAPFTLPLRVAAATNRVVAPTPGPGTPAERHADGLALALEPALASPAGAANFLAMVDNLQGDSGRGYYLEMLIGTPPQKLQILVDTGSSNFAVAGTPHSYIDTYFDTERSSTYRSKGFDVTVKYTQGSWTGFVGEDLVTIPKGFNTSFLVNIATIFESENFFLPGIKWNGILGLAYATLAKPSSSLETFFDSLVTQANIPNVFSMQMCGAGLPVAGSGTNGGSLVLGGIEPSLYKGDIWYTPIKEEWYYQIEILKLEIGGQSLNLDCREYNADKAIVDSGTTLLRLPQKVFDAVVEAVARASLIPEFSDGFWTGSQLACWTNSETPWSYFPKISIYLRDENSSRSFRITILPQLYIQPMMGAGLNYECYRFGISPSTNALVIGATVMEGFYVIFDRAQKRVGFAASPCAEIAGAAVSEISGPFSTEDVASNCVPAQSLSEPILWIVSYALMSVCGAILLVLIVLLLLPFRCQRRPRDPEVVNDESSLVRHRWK
# Experiment: not given
# Conditions: not given
row,Ki [nM],Compound
1,1700,COc1c(C)cc(C2(c3cccc(-c4cncnc4)c3)N=C(N)c3c(F)cccc32)nc1C (centres undefined)
2,740,Cc1cc(C2(c3cccc(-c4cncnc4)c3)N=C(N)c3c(F)cccc32)cn(C)c1=O (centres undefined)
3,770,NC1=N[C@@](c2cccc(-c3cncnc3)c2)(c2ccnc(C(F)F)c2)c2cc(F)cc(F)c21

# Target: Voltage-gated inwardly rectifying potassium channel KCNH2 (Homo sapiens, UniProt Q12809)
# Experiment: not given
# Conditions: not given
# Sequence of Voltage-gated inwardly rectifying potassium channel KCNH2 (Q12809 whole entry): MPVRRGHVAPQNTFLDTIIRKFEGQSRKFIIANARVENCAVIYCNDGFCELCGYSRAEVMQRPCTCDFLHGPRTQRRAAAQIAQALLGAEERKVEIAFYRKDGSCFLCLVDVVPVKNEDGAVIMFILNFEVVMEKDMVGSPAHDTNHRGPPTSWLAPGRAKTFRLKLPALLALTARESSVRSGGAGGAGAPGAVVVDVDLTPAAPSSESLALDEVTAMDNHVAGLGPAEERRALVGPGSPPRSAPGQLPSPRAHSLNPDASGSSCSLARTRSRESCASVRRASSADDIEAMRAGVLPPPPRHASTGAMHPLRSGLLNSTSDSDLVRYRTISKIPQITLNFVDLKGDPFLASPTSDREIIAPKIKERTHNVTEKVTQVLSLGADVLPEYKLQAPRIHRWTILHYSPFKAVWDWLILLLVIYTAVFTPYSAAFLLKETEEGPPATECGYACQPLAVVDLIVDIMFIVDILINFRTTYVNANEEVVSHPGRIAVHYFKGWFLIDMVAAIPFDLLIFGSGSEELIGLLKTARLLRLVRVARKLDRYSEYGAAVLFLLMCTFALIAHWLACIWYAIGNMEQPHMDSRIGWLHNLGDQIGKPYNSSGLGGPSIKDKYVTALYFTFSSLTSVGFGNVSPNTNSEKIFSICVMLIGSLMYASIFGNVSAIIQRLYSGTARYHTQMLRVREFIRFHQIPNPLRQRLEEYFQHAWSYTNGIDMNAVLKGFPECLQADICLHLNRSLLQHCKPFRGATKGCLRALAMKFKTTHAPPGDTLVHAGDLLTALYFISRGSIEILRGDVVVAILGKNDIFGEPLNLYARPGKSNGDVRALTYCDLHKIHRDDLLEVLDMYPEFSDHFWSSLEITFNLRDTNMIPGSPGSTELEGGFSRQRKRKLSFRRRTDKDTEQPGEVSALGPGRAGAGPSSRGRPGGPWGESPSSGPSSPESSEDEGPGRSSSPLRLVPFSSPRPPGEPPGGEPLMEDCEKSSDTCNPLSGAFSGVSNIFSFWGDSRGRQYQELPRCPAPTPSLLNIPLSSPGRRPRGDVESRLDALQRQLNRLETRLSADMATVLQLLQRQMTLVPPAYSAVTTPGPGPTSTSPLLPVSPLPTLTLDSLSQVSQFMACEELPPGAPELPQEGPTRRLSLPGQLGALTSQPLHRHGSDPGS
row,Compound,IC50 [nM]
1,NC1=NC(c2ccncc2)(c2cccc(-c3cncnc3)c2)c2ccccc21 (centres undefined),16000

# Target: Beta-secretase 1 (Mus musculus, UniProt P56818)
# Experiment: not given
# Conditions: not given
# Sequence of Beta-secretase 1 (Mus musculus, UniProt P56818) (P56818 whole entry): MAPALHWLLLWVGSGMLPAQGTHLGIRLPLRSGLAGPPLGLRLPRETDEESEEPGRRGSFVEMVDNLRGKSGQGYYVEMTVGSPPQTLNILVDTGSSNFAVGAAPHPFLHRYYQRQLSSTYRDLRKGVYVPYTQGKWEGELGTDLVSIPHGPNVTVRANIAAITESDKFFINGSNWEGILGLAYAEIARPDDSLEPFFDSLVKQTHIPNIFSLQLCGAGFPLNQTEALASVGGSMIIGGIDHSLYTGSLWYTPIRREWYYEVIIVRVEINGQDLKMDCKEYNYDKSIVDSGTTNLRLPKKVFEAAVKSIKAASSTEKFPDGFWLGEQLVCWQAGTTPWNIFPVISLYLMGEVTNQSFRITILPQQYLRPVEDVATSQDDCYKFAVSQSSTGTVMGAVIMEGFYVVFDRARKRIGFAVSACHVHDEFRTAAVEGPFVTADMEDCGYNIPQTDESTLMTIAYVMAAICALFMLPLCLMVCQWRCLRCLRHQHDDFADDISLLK
row,IC50 [nM],Compound
1,40,COc1c(C)cc(C2(c3cccc(-c4cncnc4)c3)N=C(N)c3c(F)cccc32)nc1C (centres undefined)
2,30,Cc1cc(C2(c3cccc(-c4cncnc4)c3)N=C(N)c3c(F)cccc32)cn(C)c1=O (centres undefined)
3,53,NC1=N[C@@](c2cccc(-c3cncnc3)c2)(c2ccnc(C(F)F)c2)c2cc(F)cc(F)c21

# Test system: not listed separately
# Experiment: physchem
# Conditions: not given
row,logD,Compound
1,3.1,COc1c(C)cc(C2(c3cccc(-c4cncnc4)c3)N=C(N)c3c(F)cccc32)cc1C#N (centres undefined)
2,0.7,NC1=NC(c2ccncc2)(c2cccc(-c3cncnc3)c2)c2ccccc21 (centres undefined)

# Test system: not listed separately
# Experiment: physchem
# Conditions: not given
# Remark: another data set of the same source
row,pKa,Compound
1,8.4,NC1=NC(c2ccncc2)(c2cccc(-c3cncnc3)c2)c2ccccc21 (centres undefined)

# Test system: not listed separately
# Experiment: in vitro
# Conditions: rat, hepatocytes
row,hepatocyte CLint [µL/min/1e6 cells],Compound
1,30.9,COc1c(C)cc(C2(c3cccc(-c4cncnc4)c3)N=C(N)c3c(F)cccc32)cc1C#N (centres undefined)
2,11.7,NC1=NC(c2ccncc2)(c2cccc(-c3cncnc3)c2)c2ccccc21 (centres undefined)

# Test system: not listed separately
# Experiment: in vitro
# Conditions: human, Caco-2
# Description: Efflux ratio of apparent permeability from basal to apical to apical to basal side of human Caco2 cells at 10 uM after 60 mins by LC/MS analysis
row,"efflux ratio at 1 h, 10 µM",Compound
1,12,NC1=NC(c2ccncc2)(c2cccc(-c3cncnc3)c2)c2ccccc21 (centres undefined)

# Test system: not listed separately
# Experiment: in vitro
# Conditions: human, Caco-2
# Remark: another data set of the same source
# Description: Apparent permeability from apical to basal side of human Caco2 cells at 10 uM after 60 mins by LC/MS analysis
row,"Papp A→B at 1 h, 10 µM [×10⁻⁶ cm/s]",Compound
1,23,COc1c(C)cc(C2(c3cccc(-c4cncnc4)c3)N=C(N)c3c(F)cccc32)cc1C#N (centres undefined)
2,3.4,NC1=NC(c2ccncc2)(c2cccc(-c3cncnc3)c2)c2ccccc21 (centres undefined)
